Assay results as given in ChEMBL document CHEMBL5385890, “A JAK tyrosine kinase and pseudokinase Co-inhibition strategy combines enhanced potency and on-demand activation” (Eur J Med Chem, 2023).
The source made the active and inactive calls. The calls are words filed in the database; no cut-off is given here.

Key:
HEL [1] = assay: Cytotoxicity against HEL cells assessed as inhibition of cell growth; type: functional, cell-based; conditions: Homo sapiens
[2] = Cytotoxicity against HUVEC cells assessed as inhibition of cell growth incubated in presence of N-tert-butyl-3-[[5-methyl-2-(4-piperazin-1-ylanilino)pyrimidin-4-yl]amino]benzenesulfonamide; conditions: human
[3] = Cytotoxicity against HUVEC cells assessed as inhibition of cell growth; type: toxicity, cell-based; conditions: human
HEL [4] = assay: Cytotoxicity against HEL cells assessed as inhibition of cell growth incubated under normoxic condition in presence of 3-cyclopropyl-1-(3-{5-[(morpholin-4-yl)methyl]-1H-1,3-benzodiazol-2-yl}-1H-pyrazol-4-yl)urea; type: functional, cell-based; conditions: Homo sapiens
HEL [5] = assay: Cytotoxicity against HEL cells assessed as inhibition of cell growth incubated under normoxic condition in presence of N-tert-butyl-3-[[5-methyl-2-(4-piperazin-1-ylanilino)pyrimidin-4-yl]amino]benzenesulfonamide; type: functional, cell-based; conditions: Homo sapiens
HEL [6] = assay: Antitumor activity against HEL cells xenografted in Balb/c nude mouse assessed as tumor growth inhibition at 25 mg/kg, ip administered once daily for 14 consecutive days relative to control; type: functional, Homo sapiens; conditions: 336 h, time 14 day, read-out: TGI
HEL [7] = assay: Cytotoxicity against HEL cells assessed as inhibition of cell growth incubated under hypoxic condition in presence of N-tert-butyl-3-[[5-methyl-2-(4-piperazin-1-ylanilino)pyrimidin-4-yl]amino]benzenesulfonamide; type: functional, cell-based; conditions: Homo sapiens
HEL [8] = assay: Cytotoxicity against HEL cells assessed as inhibition of cell growth irradiated with 450 nm light and incubated in presence of N-tert-butyl-3-[[5-methyl-2-(4-piperazin-1-ylanilino)pyrimidin-4-yl]amino]benzenesulfonamide; type: functional, cell-based; conditions: Homo sapiens, light or radiation study
HEL [9] = assay: Cytotoxicity against HEL cells assessed as inhibition of cell growth incubated under dark condition in presence of N-tert-butyl-3-[[5-methyl-2-(4-piperazin-1-ylanilino)pyrimidin-4-yl]amino]benzenesulfonamide; type: functional, cell-based; conditions: Homo sapiens
HEL [10] = assay: Antitumor activity against HEL cells xenografted in Balb/c nude mouse assessed as induction of apoptosis in tumor at 25 mg/kg, ip administered once daily for 14 consecutive days in presence of N-tert-butyl-3-[[5-methyl-2-(4-piperazin-1-ylanilino)pyrimidin-4-yl]amino]benzenesulfonamide by TUNEL assay relative to control; type: functional, organism-based; conditions: Homo sapiens, time 14.0 day
HEL [11] = assay: Antitumor activity against HEL cells xenografted in Balb/c nude mouse assessed as tumor growth inhibition at 25 mg/kg, ip administered once daily for 14 consecutive days in presence of N-tert-butyl-3-[[5-methyl-2-(4-piperazin-1-ylanilino)pyrimidin-4-yl]amino]benzenesulfonamide relative to control; type: functional, Homo sapiens; conditions: 336 h, time 14 day, read-out: TGI

`CC[C@@](C)(Nc1ccnc(-c2c[nH]c3ncccc23)n1)C(=O)NCC(F)(F)F` [DECERNOTINIB] showed an IC50 (HEL [1]) of 2560 nM.
Molecule `O=C(Nc1c[nH]nc1-c1nc2cc(CN3CCOCC3)ccc2[nH]1)NC1CC1` [AT-9283] has an IC50 [2] of 1760 nM and an IC50 [3] of 1770 nM.
`O=C(Nc1c[nH]nc1-c1nc2ccc(CN3CCOCC3)cc2[nH]1)NC1CC1` [AT-9283] gave an IC50 (HEL [4]) of 650 nM, an IC50 (HEL [5]) of 650 nM and an inhibition in vivo at 25 mg/kg (HEL [6]) of 85.9%. The IC50 (HEL [7]) was 1340 nM, the IC50 (HEL [8]) was 2180 nM and the IC50 (HEL [9]) was 1410 nM. The IC50 (HEL [1]) was 1040 nM, the Activity (HEL [10]) was “Active” and the inhibition in vivo at 25 mg/kg (HEL [11]) was 91.2%.
Molecule `C[C@@H]1CCN(C(=O)CC#N)C[C@@H]1N(C)c1ncnc2[nH]ccc12` [TOFACITINIB] has an IC50 (HEL [1]) of 3830 nM.
